Measured values taken from patent US20100286145A1, “ISOPHTHALAMIDE DERIVATIVES INHIBITING BETA-SECRETASE ACTIVITY” (CoMentis, Inc., priority 2007, published 2010).

How the values were obtained:
memapsin 2 = memapsin 2 (Homo sapiens, UniProt P56817); assay: Inhibition of memapsin 2 beta-secretase activity (fluorogenic substrate FS-2); type: biochemical; details: memapsin 2, pH 4, 37° C., 20 minutes pre-incubation; read-out: M2Ki
In short: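 Kinetic fluorogenic assay: hydrolysis of the MCA/DNP-labelled APP Swedish-variant peptide FS-2 monitored as fluorescence rise at 37° C, pH 4, after 20 min enzyme–compound preincubation. Relative rates fitted with a tight-binding inhibitor model.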

[1] = system: Aβ production in Chinese hamster ovary cells that over-express human APP695 with the London and Swedish mutations; assay: Cellular Aβ IC50 determination (Aβ40 sandwich ELISA); type: cell-based; details: Cricetulus griseus; cellular Aβ production; read-out: IC50
In short: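 Aβ40 in media quantified by sandwich ELISA, normalized to control incubations and fitted with a 4-parameter IC50 model. Compounds dosed to a final concentration near 4 μM (0.4% DMSO) on CHO cells expressing human APP695 (London and Swedish mutants) seeded at 10% confluency.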

memapsin 2, sequence (P56817 46-501): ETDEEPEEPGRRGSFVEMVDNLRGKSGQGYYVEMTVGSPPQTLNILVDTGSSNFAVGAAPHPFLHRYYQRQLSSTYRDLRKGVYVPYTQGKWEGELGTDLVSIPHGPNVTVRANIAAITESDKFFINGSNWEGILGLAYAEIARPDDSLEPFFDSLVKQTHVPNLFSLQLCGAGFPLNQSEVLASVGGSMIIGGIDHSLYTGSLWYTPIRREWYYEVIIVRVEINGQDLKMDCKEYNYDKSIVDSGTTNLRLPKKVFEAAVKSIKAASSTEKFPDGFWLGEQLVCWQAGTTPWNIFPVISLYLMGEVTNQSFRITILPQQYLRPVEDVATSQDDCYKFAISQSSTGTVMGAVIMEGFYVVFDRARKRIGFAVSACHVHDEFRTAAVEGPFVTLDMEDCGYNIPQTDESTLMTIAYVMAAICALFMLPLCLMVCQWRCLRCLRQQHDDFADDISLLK

C[C@@H](NC(=O)c1cc(C(=O)N[C@@H](Cc2ccccc2)[C@H](O)CNCc2cccc(C(F)F)c2)cc(N(C)S(C)(=O)=O)c1)c1ccccc1 [Compound 142, N1-((2S,3R)-4-(3-(difluoromethyl)benzylamino)-3-hydroxy-1-phenylbutan-2-yl)-5-(N-methylmethylsulfonamido)-N3-((R)-1-phenylethyl)isophthalamide]
Ki (memapsin 2): < 300 nM | IC50 [1]: < 1000 nM

Cc1csc(CN(C)C(=O)c2cccc(C(=O)N[C@@H](Cc3ccccc3)[C@H](O)CNCc3cccc(C(F)F)c3)c2)n1 [Compound 143, N1-((2S,3R)-4-(3-(difluoromethyl)benzylamino)-3-hydroxy-1-phenylbutan-2-yl)-N3-methyl-N3-((4-methylthiazol-2-yl)methyl)isophthalamide]
Ki (memapsin 2): < 300 nM | IC50 [1]: < 1000 nM

C[C@@H](NC(=O)c1cc(C(=O)N[C@@H](Cc2ccccc2)[C@H](O)CNCc2cccc(C(C)(F)F)c2)cc(N(C)S(C)(=O)=O)c1)c1ccccc1 [Compound 144, N1-((2S,3R)-4-(3-(1,1-difluoroethyl)benzylamino)-3-hydroxy-1-phenylbutan-2-yl)-5-(N-methylmethylsulfonamido)-N3-((R)-1-phenylethyl)isophthalamide]
Ki (memapsin 2): < 300 nM | IC50 [1]: < 1000 nM

Cc1csc(CN(C)C(=O)c2cccc(C(=O)N[C@@H](Cc3ccccc3)[C@H](O)CNCc3cccc(C(C)(F)F)c3)c2)n1 [Compound 145, N1-((2S,3R)-4-(3-(1,1-difluoroethyl)benzylamino)-3-hydroxy-1-phenylbutan-2-yl)-N3-methyl-N3-((4-methylthiazol-2-yl)methyl)isophthalamide]
Ki (memapsin 2): < 300 nM | IC50 [1]: < 1000 nM

Cc1csc(CN(C)C(=O)c2cccc(C(=O)N[C@@H](Cc3ccccc3)[C@H](O)CNCc3cc(C(C)C)cc(N(C)S(C)(=O)=O)c3)c2)n1 [Compound 146, N1-((2S,3R)-3-hydroxy-4-(3-isopropyl-5-(N-methylmethylsulfonamido)benzylamino)-1-phenylbutan-2-yl)-N3-methyl-N3-((4-methylthiazol-2-yl)methyl)isophthalamide]
Ki (memapsin 2): < 300 nM | IC50 [1]: < 1000 nM

Cc1csc(CN(C)C(=O)c2cccc(C(=O)N[C@@H](Cc3ccccc3)[C@H](O)CNC(C)c3cncc(C(C)C)c3)c2)n1 (stereo partly drawn) [Compound 148, N1-((2S,3R)-3-hydroxy-4-(1-(5-isopropylpyridin-3-yl)ethylamino)-1-phenylbutan-2-yl)-N3-methyl-N3-((4-methylthiazol-2-yl)methyl)isophthalamide]
Ki (memapsin 2): < 300 nM | IC50 [1]: < 1000 nM

C[C@@H](NC(=O)c1cc(C(=O)N[C@@H](Cc2ccccc2)[C@H](O)CNCc2cccc(C#N)c2)cc(N(C)S(C)(=O)=O)c1)c1ccccc1 [Compound 149, N1-((2S,3R)-4-(3-cyanobenzylamino)-3-hydroxy-1-phenylbutan-2-yl)-5-(N-methylmethylsulfonamido)-N3-((R)-1-phenylethyl)isophthalamide]
Ki (memapsin 2): < 300 nM | IC50 [1]: < 1000 nM

Cc1csc(CN(C)C(=O)c2cccc(C(=O)N[C@@H](Cc3ccccc3)[C@H](O)CNCc3cc(C(C)C)cc(S(C)(=O)=O)c3)c2)n1 [Compound 150, N1-((2S,3R)-3-hydroxy-4-(3-isopropyl-5-(methylsulfonyl)benzylamino)-1-phenylbutan-2-yl)-N3-methyl-N3-((4-methylthiazol-2-yl)methyl)isophthalamide]
Ki (memapsin 2): < 300 nM | IC50 [1]: < 1000 nM

Cc1csc(CN(C)C(=O)c2cc(C(=O)N[C@@H](Cc3ccccc3)[C@H](O)CNCc3cncc(C(C)C)c3)cc(-c3ccccc3C#N)c2)n1 [Compound 154, 2′-cyano-N3-((2S,3R)-3-hydroxy-4-((5-isopropylpyridin-3-yl)methylamino)-1-phenylbutan-2-yl)-N5-methyl-N5-((4-methylthiazol-2-yl)methyl)biphenyl-3,5-dicarboxamide]
Ki (memapsin 2): < 300 nM | IC50 [1]: < 1000 nM

Cc1csc(CN(C)C(=O)c2cccc(C(=O)N[C@@H](Cc3ccccc3)[C@H](O)CNCc3cc(C(C)C)nc(N)n3)c2)n1 [Compound 155, N1-((2S,3R)-4-((2-amino-6-isopropylpyrimidin-4-yl)methylamino)-3-hydroxy-1-phenylbutan-2-yl)-N3-methyl-N3-((4-methylthiazol-2-yl)methyl)isophthalamide]
Ki (memapsin 2): < 300 nM | IC50 [1]: < 1000 nM

Cc1csc(CN(C)C(=O)c2cccc(C(=O)N[C@@H](Cc3ccccc3)[C@H](O)CNCc3cncc(Br)c3)c2)n1 [Compound 158, N1-((2S,3R)-4-((5-bromopyridin-3-yl)methylamino)-3-hydroxy-1-phenylbutan-2-yl)-N3-methyl-N3-((4-methylthiazol-2-yl)methyl)isophthalamide]
Ki (memapsin 2): < 300 nM | IC50 [1]: < 1000 nM

CNc1nc(CNC[C@@H](O)[C@H](Cc2ccccc2)NC(=O)c2cccc(C(=O)N(C)Cc3nc(C)cs3)c2)cc(C(C)C)n1 [Compound 161, N1-((2S,3R)-3-hydroxy-4-((6-isopropyl-2-(methylamino)pyrimidin-4-yl)methylamino)-1-phenylbutan-2-yl)-N3-methyl-N3-((4-methylthiazol-2-yl)methyl)isophthalamide]
Ki (memapsin 2): < 300 nM | IC50 [1]: < 1000 nM

Cc1csc(CN(C)C(=O)c2cc(C(=O)N[C@@H](Cc3ccccc3)[C@H](O)CNCc3cncc(C(C)C)c3)cc(N(C)C)c2)n1 [Compound 162, 5-(dimethylamino)-N1-((2S,3R)-3-hydroxy-4-((5-isopropylpyridin-3-yl)methylamino)-1-phenylbutan-2-yl)-N3-methyl-N3-((4-methylthiazol-2-yl)methyl)isophthalamide]
Ki (memapsin 2): < 300 nM | IC50 [1]: < 1000 nM

COc1cccc(C(C)(C)NC[C@@H](O)[C@H](Cc2ccccc2)NC(=O)c2cccc(C(=O)N(C)Cc3nc(C)cs3)c2)c1 [Compound 163, N1-((2S,3R)-3-hydroxy-4-(2-(3-methoxyphenyl)propan-2-ylamino)-1-phenylbutan-2-yl)-N3-methyl-N3-((4-methylthiazol-2-yl)methyl)isophthalamide]
Ki (memapsin 2): < 300 nM | IC50 [1]: < 1000 nM

Cc1csc(CN(C)C(=O)c2cccc(C(=O)N[C@@H](Cc3ccccc3)[C@H](O)CNCc3cccc(NCc4ccccc4)c3)c2)n1 [Compound 164, N1-((2S,3R)-4-(3-(benzylamino)benzylamino)-3-hydroxy-1-phenylbutan-2-yl)-N3-methyl-N3-((4-methylthiazol-2-yl)methyl)isophthalamide]
Ki (memapsin 2): < 300 nM | IC50 [1]: < 1000 nM

Cc1csc(CN(C)C(=O)c2cccc(C(=O)N[C@@H](Cc3ccccc3)[C@H](O)CNCc3cc(OS(C)(=O)=O)cc(C(C)C)c3)c2)n1 [Compound 165, 3-(((2R,3S)-2-hydroxy-3-(3-(methyl((4-methylthiazol-2-yl)methyl)carbamoyl)benzamido)-4-phenylbutylamino)methyl)-5-isopropylphenyl methanesulfonate]
Ki (memapsin 2): < 300 nM | IC50 [1]: < 1000 nM

COc1cccc(NC[C@@H](O)[C@H](Cc2ccccc2)NC(=O)c2cccc(C(=O)N(C)Cc3nc(C)cs3)c2)c1 [Compound 166, N1-((2S,3R)-3-hydroxy-4-(3-methoxyphenylamino)-1-phenylbutan-2-yl)-N3-methyl-N3-((4-methylthiazol-2-yl)methyl)isophthalamide]
Ki (memapsin 2): > 501 nM | IC50 [1]: > 5000 nM
